What all share (assay): relative viability (nuclei count vs DMSO), 5 days (fraction); higher = more cells survive
Compound in the assay “CUDC-101 + Linsitinib”: C#Cc1cccc(Nc2ncnc3cc(OC)c(OCCCCCCC(=O)NO)cc23)c1 [CUDC-101] + C[C@]1(O)C[C@@H](c2nc(-c3ccc4ccc(-c5ccccc5)nc4c3)c3c(N)nccn32)C1 [Linsitinib] (partner 1 µM)
Summed up: (§1)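 Nuclei were stained with Hoechst during a one-step fixation (final 0.05% Triton X-100, 1% formaldehyde, 1 ug/ml Hoechst) carried out 5 days after dosing, then counted on 4× images. The cells, lung cancer lines in 1536-well plates, had been dosed by pin tool the day after seeding with one drug alone or a fixed anchor-drug dose plus five library-drug doses (not always all listed) in √10 steps. Relative viability is the nuclei count in treated wells divided by that in vehicle wells, and each value is the median of duplicate plates.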

Compound in the assay “NVP-TAE684 + Pictilisib”: COc1cc(N2CCC(N3CCN(C)CC3)CC2)ccc1Nc1ncc(Cl)c(Nc2ccccc2S(=O)(=O)C(C)C)n1 [NVP-TAE684] + CS(=O)(=O)N1CCN(Cc2cc3nc(-c4cccc5[nH]ncc45)nc(N4CCOCC4)c3s2)CC1 [Pictilisib] (partner 1 µM)
An outline of the steps:
as §1

Compound in the assay “NVP-TAE684 + Tozasertib”: COc1cc(N2CCC(N3CCN(C)CC3)CC2)ccc1Nc1ncc(Cl)c(Nc2ccccc2S(=O)(=O)C(C)C)n1 [NVP-TAE684] + Cc1cc(Nc2cc(N3CCN(C)CC3)nc(Sc3ccc(NC(=O)C4CC4)cc3)n2)n[nH]1 [Tozasertib] (partner 0.1 µM)
Summed up: as §1

Compound in the assay “Vandetanib + Lapatinib”: COc1cc2/c(=N/c3ccc(Br)cc3F)nc[nH]c2cc1OCC1CCN(C)CC1 [Vandetanib] + CS(=O)(=O)CCNCc1ccc(-c2ccc3ncnc(Nc4ccc(OCc5cccc(F)c5)c(Cl)c4)c3c2)o1 [Lapatinib] (partner 2 µM)
An outline of the steps: as §1

Compound in the assay “Vandetanib + Vorinostat”: COc1cc2/c(=N/c3ccc(Br)cc3F)nc[nH]c2cc1OCC1CCN(C)CC1 [Vandetanib] + O=C(CCCCCCC(=O)Nc1ccccc1)NO [Vorinostat] (partner 1 µM)
An outline of the steps:
as §1

Consider UMC-11, for which the relative viability with CUDC-101 + Linsitinib (first compound 0.01 µM) stood at 1.07; with CUDC-101 + Linsitinib (first compound 0.03162 µM), 0.97; with CUDC-101 + Linsitinib (first compound 0.1 µM) it was 1.03; in the assay with CUDC-101 + Linsitinib (first compound 0.3162 µM), 0.864; with CUDC-101 + Linsitinib (first compound 1 µM), 0.208; with NVP-TAE684 + Pictilisib (first compound 0.2 µM), 0.979. The relative viability stood at 0.586 in the assay with NVP-TAE684 + Pictilisib (first compound 2 µM); 0.234 in the assay with NVP-TAE684 + Tozasertib (first compound 0.2 µM); 0.199 with NVP-TAE684 + Tozasertib (first compound 0.6325 µM); 0.197 with NVP-TAE684 + Tozasertib (first compound 2 µM); 0.816 with Vandetanib + Lapatinib (first compound 0.02 µM); 0.961 with Vandetanib + Lapatinib (first compound 0.06325 µM). The relative viability came out at 0.664 with Vandetanib + Lapatinib (first compound 0.2 µM); 0.892 in the assay with Vandetanib + Lapatinib (first compound 0.6325 µM); 1.01 with Vandetanib + Lapatinib (first compound 2 µM); 0.43 with Vandetanib + Vorinostat (first compound 0.02 µM); 0.373 with Vandetanib + Vorinostat (first compound 0.06325 µM); 0.399 in the assay with Vandetanib + Vorinostat (first compound 0.2 µM). The relative viability came out at 0.342 with Vandetanib + Vorinostat (first compound 0.6325 µM) and 0.364 with Vandetanib + Vorinostat (first compound 2 µM).

These data come from the supplement of paper PMC10307832.
